Laboratory results reported in patent US20060008574A1, “Galactosyl isomalt, method for production and use thereof” (priority 2002, published 2006).
Like-named read-outs stand apart in the source and are kept apart here.

Assays:
[1] = tested on: pancreatin enzyme (Sigma); test: Stability with respect to pancreatic enzymes; type: in vitro ADME; settings: 1% solution, 0.2% pancreatin, pH 7.0, 210 min at 37° C.
Protocol: The pancreatic secretion contains a large number of hydrolases, including carbohydrate-degrading enzymes like α-amylase, which breaks down α-1,4-glucans (starch, glycogen) preferably to maltose and maltooligosaccharides. The test of the stability of saccharides with respect to pancreatic enzymes is carried out as follows.
3.0 mL of a carbohydrate solution (solution 2 to solution 6) is mixed with 0.1 mL of the enzyme solution (solution 7) per batch:
Solution 1: 20 mmol/L Na phosphate buffer, pH 7.0, with 6 mmol/L NaCl
Solution 2: 1% solution of β-1,4-galactosyl isomalt mixture in accordance with the invention, prepared according to Example 2 and Example 4, in solution 1
Solution 3: 1% solution of β-1,3-galactosyl isomalt mixture in accordance with the invention, prepared according to Example 1 and Example 4, in solution 1
Solution 4: 1% solution of β-1,6-galactosyl isomalt mixture in accordance with the invention; prepared according to Example 3 and Example 4, in solution 1
Solution 6: 1% starch solution (soluble starch, according to Zulkowski), in solution 1
Solution 7: 0.2% pancreatin enzyme (Sigma), dissolved in solution 1
After 210 min incubation in a thermomixer (interval shaking) at 37° C., the reaction is stopped by heating to 95° C. for 15 min and the samples are analyzed by HPAEC. The starch-containing sample (solution6+solution 7) is completely hydrolyzed before the HPAEC analysis by heating for 3 h in 1 mol/L hydrochloric acid at 95° C., and the glucose resulting from this is determined in order to calculate the starch content of the sample.

lactase = test: Stability with respect to lactase; type: in vitro ADME; settings: 0.9 unit lactase, 1% solution, 37° C., 6 h
Description: The enzyme lactase that is present at the mucosa in the small intestine serves in vivo to break down lactose that gets into the small intestine and the resulting monosaccharides are absorbed into the bloodstream through the intestinal wall.
The enzyme lactase is isolated in a modified method of Wallenfels, K., and Fischer, J. (Z. Physiologische Chemie 321 (1960) 223).
Solutions 1-5: see Example 8c)
Solution 6: 1% solution of lactose in solution 1
Solution 7: 1% solution of isomalt in solution 1
Solution 8: Lactase in solution 1
(solutions 2-7), mixed and incubated at 37° C. The reaction is stopped after 6 h by heating to 95° C. for 15 min.

[2] = Stability in the stomach: hydrolysis rate at pH 2.0; type: physicochemical; settings: 1% solution, 10 mmol/L hydrochloric acid, pH 2.0, 37° C.
Protocol: The stability of a substance in the gastric passage can be simulated by determining the hydrolysis rate at pH 2.0. Sucrose and 1-kestose are used as controls.
In each case a 1% solution of the trisaccharides (DP 3) from Example 4 is incubated with 10 mmol/L hydrochloric acid, pH 2.0 at 37° C. for 3 h. Samples are taken from the reaction mixture after 60, 120 and 180 min and are analyzed by basic anion exchange chromatography, HPAEC.

[3] = tested on: glucoamylase/maltase (GM complex); test: Stability with respect to small intestine α-glucosidases: glucoamylase/maltase; settings: 120 min incubation
Protocol: (§1) Solution 1: 0.1 mol/L triethanolamine (TEA) buffer, pH 7.0
(§2) Solution 11: Glucoamylase/maltase enzyme complex in solution 1
(§3) i) 0.7 unit of the enzyme complex saccharase/isomaltase (solution 10) or glucoamylase/maltase (solution 11) was added in each case to 1.0 mL of a carbohydrate solution heated to 37° C. (solution 2 to solution 8), mixed and incubated at 37° C.
(§4) ii) For incubation under more severe conditions, 16 units of the enzyme complex saccharase/isomaltase or 13 units of the enzyme complex glucoamylase/maltase were used. The reaction was stopped after 2 h by heating to 95° C. for 15 min. The resulting monosaccharides and the undegraded saccharides of the relevant batches were quantitatively determined by HPAEC.

human feces = test: In vitro fermentation in human feces; type: cell-based; settings: for Degradation rate: 0.5% (w/v) substrate, feces suspension, anaerobic, 37° C.; for Butyrate content (end sample): end of fermentation with human feces
Protocol: Incubation of carbohydrates with human feces allows statements to be made about the rate of metabolization by the bacterial population and formation of the short-chain fatty acid butyric acid.
To invest the fermentability in an in vitro fermentation experiment, Raftilose® P95 (fructooligosaccharides, DP4-5), galactosyl lactose (Oligomate DP 3) and lactosucrose were used for comparison as carbohydrates of similar structure and degree of polymerization, in addition to β-galactosyl isomalts.
An anaerobic medium of the following composition was used for the in vitro experiments:
9 mL of the anaerobic medium 1 described above are mixed with 0.5% (w/v) of the galactosyl isomalts to be tested (prepared according to Examples 1-3) and the corresponding controls lactosucrose and galactosyl lactose and then inoculated with 1 mL of a 10% feces suspension (mixed feces from two subjects) in anaerobic 50 mmol/L phosphate buffer, pH 7.0, to which 0.5 g/L cysteine/HCl was added beforehand as reducing agent.
The batches are then incubated in “Hungate” test tubes for a maximum of 28 h while shaking at 37° C. Samples are taken at various times and tested for content of residual oligosaccharides, short-chain fatty acids, lactic acid and pH.

[4] = biological target: saccharase/isomaltase (SI complex) (Sus scrofa, UniProt P56729); test: Stability with respect to small intestine α-glucosidases: saccharase/isomaltase; settings: 120 min incubation
Description: Solution 6: 1% solution of maltose in solution 1
Solution 7: 1% solution of sucrose in solution 1
Solution 8: 1% solution of isomalt in solution 1
Solution 9: 1% solution of isomaltulose in solution 1
Solution 10: Saccharase/isomaltase enzyme complex in solution 1

[5] = tested on: glucoamylase/maltase (GM complex)
Protocol: as §1, §2, §3, §4

[6] = Standard (0.7 unit), 37° C., pH 7.0

saccharase/isomaltase (SI complex), sequence (P56729 with tags, fused parts or gaps limits assumed): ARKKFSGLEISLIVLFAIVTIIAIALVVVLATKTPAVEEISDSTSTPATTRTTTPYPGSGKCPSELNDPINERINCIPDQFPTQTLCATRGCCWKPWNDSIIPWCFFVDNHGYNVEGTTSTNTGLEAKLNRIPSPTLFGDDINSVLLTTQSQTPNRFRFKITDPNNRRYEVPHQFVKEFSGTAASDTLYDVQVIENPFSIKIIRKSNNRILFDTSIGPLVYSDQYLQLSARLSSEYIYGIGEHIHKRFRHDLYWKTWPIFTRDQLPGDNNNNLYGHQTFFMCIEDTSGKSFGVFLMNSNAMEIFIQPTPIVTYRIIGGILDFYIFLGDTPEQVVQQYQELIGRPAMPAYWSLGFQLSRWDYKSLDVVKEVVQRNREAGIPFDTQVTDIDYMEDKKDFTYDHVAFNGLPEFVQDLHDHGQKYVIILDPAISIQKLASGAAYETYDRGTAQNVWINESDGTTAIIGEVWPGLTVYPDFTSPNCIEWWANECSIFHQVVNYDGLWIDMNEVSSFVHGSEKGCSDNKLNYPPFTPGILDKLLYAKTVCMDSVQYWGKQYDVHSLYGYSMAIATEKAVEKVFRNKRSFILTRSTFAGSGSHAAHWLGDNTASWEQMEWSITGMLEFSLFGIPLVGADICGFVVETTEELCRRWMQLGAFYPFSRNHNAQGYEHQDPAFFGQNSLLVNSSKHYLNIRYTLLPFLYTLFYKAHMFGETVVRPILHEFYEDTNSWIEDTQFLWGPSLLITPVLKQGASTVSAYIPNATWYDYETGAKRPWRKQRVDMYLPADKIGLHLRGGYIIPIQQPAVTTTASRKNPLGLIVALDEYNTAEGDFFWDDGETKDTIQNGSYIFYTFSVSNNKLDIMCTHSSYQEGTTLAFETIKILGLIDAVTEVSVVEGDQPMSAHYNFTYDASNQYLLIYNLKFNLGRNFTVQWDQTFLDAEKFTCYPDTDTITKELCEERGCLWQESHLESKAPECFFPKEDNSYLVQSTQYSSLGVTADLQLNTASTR
saccharase/isomaltase (SI complex), sequence (P56729 with tags, fused parts or gaps limits assumed): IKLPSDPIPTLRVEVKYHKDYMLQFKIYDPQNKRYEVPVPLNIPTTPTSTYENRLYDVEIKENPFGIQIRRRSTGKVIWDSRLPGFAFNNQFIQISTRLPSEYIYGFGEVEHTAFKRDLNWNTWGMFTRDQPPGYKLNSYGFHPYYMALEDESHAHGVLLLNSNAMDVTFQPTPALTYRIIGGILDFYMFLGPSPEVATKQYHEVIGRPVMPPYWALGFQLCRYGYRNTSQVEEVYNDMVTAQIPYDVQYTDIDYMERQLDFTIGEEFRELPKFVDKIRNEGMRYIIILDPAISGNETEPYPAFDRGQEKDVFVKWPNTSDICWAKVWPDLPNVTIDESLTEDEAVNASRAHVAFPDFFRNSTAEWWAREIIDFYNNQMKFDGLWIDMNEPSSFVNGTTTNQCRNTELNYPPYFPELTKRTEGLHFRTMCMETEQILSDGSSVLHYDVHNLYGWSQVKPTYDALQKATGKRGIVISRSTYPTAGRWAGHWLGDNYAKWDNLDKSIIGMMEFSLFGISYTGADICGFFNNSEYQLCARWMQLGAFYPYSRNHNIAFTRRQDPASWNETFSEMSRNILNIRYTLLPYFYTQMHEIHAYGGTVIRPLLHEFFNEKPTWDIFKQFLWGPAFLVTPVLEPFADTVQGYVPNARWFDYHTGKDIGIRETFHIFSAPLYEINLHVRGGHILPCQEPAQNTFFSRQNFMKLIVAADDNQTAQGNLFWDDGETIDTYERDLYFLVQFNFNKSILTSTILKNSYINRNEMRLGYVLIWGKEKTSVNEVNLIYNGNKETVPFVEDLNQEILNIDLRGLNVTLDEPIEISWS

Question: With `OCC1O[C@@H](O[C@@H]2C(CO)O[C@H](OC[C@@H](O)[C@@H](O)[C@H](O)C(O)CO)C(O)C2O)C(O)C(O)[C@H]1O` (mixture of isomers) [β-1,4-Galactosyl isomalt, β-D-galactosyl-(1→4)-α-D-glucosyl-(1→6)-D-sorbitol (β-1,4-galactosyl-1,6-GPS) and β-D-galactosyl-(1→4)-α-D-glucosyl-(1→1)-D-mannitol(β-1,4-galactosyl-1,1-GPM)] as the molecule, how does the “Decomposition rate [%]” value [1] read?
Answer: The value was less than 1%.

Question: What about the “Hydrolysis rate [%], incubation with lactase” value (lactase) of the same molecule?
Answer: The value was 13.4%.

Question: And the “Hydrolysis rate [%]” value ([2]; incubation time 0 min)?
Answer: Its value is 0%.

Question: And the “Hydrolysis rate [%]” value ([2]; incubation time 60 min)?
Answer: The value was 0%.

Question: And the “Hydrolysis rate [%]” value ([2]; incubation time 120 min)?
Answer: The value was 0%.

Question: And the “Hydrolysis rate [%]” value ([2]; incubation time 180 min)?
Answer: Its value is less than 1%.

Question: What about the “Hydrolysis rate [%]” value ([3]; More stringent (13 units)) of the same molecule?
Answer: Its value is 0%.

Question: And the “Hydrolysis rate [%]” value [3, 6]?
Answer: Its value is 0%.

Question: And the Degradation rate (human feces; incubation time 7 (h))?
Answer: The Degradation rate was 61%.

Question: And the Degradation rate (human feces; incubation time 22 (h))?
Answer: The Degradation rate was 97.7%.

Question: What about the Degradation rate (human feces; incubation time 28 (h)) of the same molecule?
Answer: Its Degradation rate is 96%.

Question: Which results are given for `OCC1O[C@@H](OCC2O[C@H](OC[C@@H](O)[C@@H](O)[C@H](O)C(O)CO)C(O)C(O)[C@@H]2O)C(O)C(O)[C@H]1O` (mixture of isomers) [β-1,6-Galactosyl isomalt, β-D-galactosyl-(1→6)-α-D-glucosyl-(1→6)-D-sorbitol(β-1,6-galactosyl-1,6-GPS) and β-D-galactosyl-(1→6)-α-D-glucosyl-(1→1)-D-mannitol(β-1,6-galactosyl-1,1-GPM)]?
Answer: Decomposition rate [%] [1]: <1%; Hydrolysis rate [%], incubation with lactase (lactase): 9.3%; Hydrolysis rate [%] ([2]; incubation time 0 min): 0%; Hydrolysis rate [%] ([2]; incubation time 60 min): 0%; Hydrolysis rate [%] ([2]; incubation time 120 min): 0%; Hydrolysis rate [%] ([2]; incubation time 180 min): <1%; Hydrolysis rate [%] ([3]; More stringent (13 units)): 0%; Hydrolysis rate [%] [3, 6]: 0%; Butyrate content (end sample) (human feces): 15.3 mmol/L; Degradation rate (human feces; incubation time 7 (h)): 64.2%; Degradation rate (human feces; incubation time 22 (h)): 96.1%; Degradation rate (human feces; incubation time 28 (h)): 99.2%

Question: Which results are given for `OC[C@H]1O[C@@](CO)(OC[C@@]2(O[C@H]3O[C@H](CO)[C@@H](O)[C@H](O)[C@H]3O)O[C@H](CO)[C@@H](O)[C@@H]2O)[C@@H](O)[C@@H]1O` [1-Kestose, reference compound]?
Answer: Hydrolysis rate [%] ([2]; incubation time 0 min): 0%; Hydrolysis rate [%] ([2]; incubation time 60 min): 11%; Hydrolysis rate [%] ([2]; incubation time 120 min): 25%; Hydrolysis rate [%] ([2]; incubation time 180 min): 36%

Question: With `OC[C@H]1O[C@H](OC[C@H]2O[C@](O)(CO)[C@@H](O)[C@@H]2O)[C@H](O)[C@@H](O)[C@@H]1O` [Isomaltulose, 6-O-α-D-glucopyranosyl-(1→6)-β-D-fructofuranose] as the molecule, how does the “Hydrolysis rate [%]” value ([4]; More stringent (16 units)) read?
Answer: Its value is 79.0%.

Question: And the “Hydrolysis rate [%]” value [4, 6]?
Answer: The value was 18.0%.

Question: And the “Hydrolysis rate [%]” value [5]?
Answer: The value was 39.9%.

Question: What about the “Hydrolysis rate [%]” value ([5]; pH 7) of the same molecule?
Answer: Its value is 3.1%.

Question: Which “Hydrolysis rate [%], incubation with lactase” value (lactase) does the source give for `OC[C@H]1O[C@@H](O[C@H]2[C@H](O)[C@@H](O)C(O)O[C@@H]2CO)[C@H](O)[C@@H](O)[C@H]1O` (some centres unmarked) [Lactose, reference compound] here?
Answer: The value was 95.6%.

Question: What about the “Hydrolysis rate [%], incubation with lactase” value (lactase; listed as lactose) of the same molecule?
Answer: The value was “Nearly complete hydrolysis”.

Question: Which “content of butyrate formed at the end of the fermentations” value (human feces) does the source give for `OC[C@H]1O[C@@H](O[C@H]2[C@H](O)[C@@H](O)[C@@H](O[C@]3(CO)O[C@H](CO)[C@@H](O)[C@@H]3O)O[C@@H]2CO)[C@H](O)[C@@H](O)[C@H]1O` [Lactosucrose, reference compound] here?
Answer: The value was “about 6 mmol/L”.

Question: What about the “Butyrate content (end sample)” value (human feces) of the same molecule?
Answer: The value was 6.5 mmol/L.

Question: What about the Degradation rate (human feces; incubation time 7 (h)) of the same molecule?
Answer: Its Degradation rate is 98.9%.

Question: What about the Degradation rate (human feces; incubation time 7 (h), listed as lactosucrose) of the same molecule?
Answer: The Degradation rate was “nearly completely metabolized”.

Question: And the Degradation rate (human feces; incubation time 14 (h))?
Answer: Its Degradation rate is 100%.

Question: With `OC[C@H]1O[C@H](O[C@H]2[C@H](O)[C@@H](O)[C@H](O)O[C@@H]2CO)[C@H](O)[C@@H](O)[C@@H]1O` [Maltose] as the molecule, how does the “Hydrolysis rate [%]” value [3, 6] read?
Answer: The value was “Nearly complete hydrolysis”.

Question: Which “Hydrolysis rate [%]” value ([4]; Standard (0.7 unit), 37° C., pH 7.0, listed as saccharose) does the source give for `OC[C@H]1O[C@@](CO)(O[C@H]2O[C@H](CO)[C@@H](O)[C@H](O)[C@H]2O)[C@@H](O)[C@@H]1O` [Sucrose, reference compound] here?
Answer: The value was “Nearly complete hydrolysis”.

Question: And the “Hydrolysis rate [%]” value ([2]; incubation time 0 min)?
Answer: The value was 0%.

Question: What about the “Hydrolysis rate [%]” value ([2]; incubation time 60 min) of the same molecule?
Answer: The value was 2%.

Question: What about the “Hydrolysis rate [%]” value ([2]; incubation time 120 min) of the same molecule?
Answer: Its value is 5%.

Question: And the “Hydrolysis rate [%]” value ([2]; incubation time 180 min)?
Answer: The value was 8%.

Question: With Isomalt as the molecule, how does the “Hydrolysis rate [%]” value ([4]; More stringent (16 units)) read?
Answer: The value was 52.4%.

Question: What about the “Hydrolysis rate [%]” value ([4]; More stringent (16 units), listed as isomalt) of the same molecule?
Answer: Its value is 52%.

Question: And the “Hydrolysis rate [%]” value [4, 6]?
Answer: The value was 3.5%.

Question: And the “Hydrolysis rate [%]” value ([4]; Standard (0.7 unit), 37° C., pH 7.0, listed as isomalt)?
Answer: The value was “partially broken down”.

Question: What about the “Hydrolysis rate [%]” value [5] of the same molecule?
Answer: Its value is 12.8%.

Question: And the “Hydrolysis rate [%]” value ([5]; pH 7)?
Answer: The value was 0%.

Question: Which “content of butyrate formed at the end of the fermentations” value (human feces) does the source give for “galactosyl lactose [Galactosyl-Lactose (Oligomate DP 3), reference compound]” here?
Answer: The value was “about 6 mmol/L”.

Question: And the “Butyrate content (end sample)” value (human feces)?
Answer: The value was 6.3 mmol/L.

Question: And the Degradation rate (human feces; incubation time 7 (h))?
Answer: The Degradation rate was 96.6%.

Question: And the Degradation rate (human feces; incubation time 7 (h), listed as galactosyl lactose)?
Answer: Its Degradation rate is “nearly completely metabolized”.

Question: What about the Degradation rate (human feces; incubation time 14 (h)) of the same molecule?
Answer: The Degradation rate was 99.5%.

Question: What about the Degradation rate (human feces; incubation time 22 (h)) of the same molecule?
Answer: The Degradation rate was 100%.
